From patent US20220087983A1, “ACTIVATING PYRUVATE KINASE R” (FORMA Therapeutics, Inc., priority 2020, published 2022)
Values joined by “and” are separate entries in the source; they are usually repeats but may differ in a detail not shown here. Identical values can stand only once.

Columns and labels:
[1] = biological target: T1, wt-PKR in mature human erythrocytes (Homo sapiens, UniProt P30613); assay: Cell assay: PKR activation in human RBCs (Biovision Pyruvate Kinase Assay); assay type: cell-based
T1 construct: host or cells: purified human RBCs from donors
Method: The activation of wt-PKR by Compound 1 in mature human erythrocytes ex vivo was evaluated in purified RBCs purchased from Research Blood Components. Cells treated with Compound 1 for 3 hr in glucose-containing media were washed, lysed, and assayed using a Biovision Pyruvate Kinase Assay (K709-100). The assay was repeated multiple times to account for donor-to-donor variability and the relatively narrow dynamic range.

[2] = Phase 1: safety, adverse events in SCD patients; assay type: in vivo, human
Method: All SCD patients who received a single 700 mg dose of Compound 1 or placebo were monitored for adverse events for 7 days. The incidence of treatment emergent adverse events (TEAEs) in SCD patients receiving Compound 1 (700 mg) or placebo are reported in Table 23. Six TEAEs were reported in 4 patients; all TEAEs were grade 1 and transient. Specifically, six TEAEs were reported in 4 of 7 (57%) patients, including 3 TEAEs (arthralgia, headache, palpitations) in 2 of 5 (40%) pts receiving Compound 1 and 3 TEAEs (back pain, myalgia, pruritis) in 2 of 2 (100%) pts receiving placebo; all TEAEs were grade 1 and transient. […] One possibly related TEAE (palpitations) occurred about 8 hours post dose. No other symptoms were observed, and the palpitations resolved in <1 minute. […] The single 700 mg dose of Compound 1 was considered tolerable, and the first multiple dose SCD cohort was initiated.
Based on data from the MAD1 (300 mg once daily for 14 days), Compound 1 is well-tolerated in patients with SCD. In all, eighteen TEAEs were reported in 7 of 9 patients in the MAD1 (300 mg once daily) cohort (N=9). These included (a) eight Grade 1 TEAEs, including 3 patients c/o headache, 1 each of nausea, constipation, somnolence, increased LDH and increased AST, of which two AEs considered to be possibly related to study treatment were reported by one patient each (1 AE of headache and 1 AE of nausea); (b) six Grade 2 TEAEs, including 3 uncomplicated sickle pain events (in 2 patients), 1 patient with N/V and 1 increased reticulocytes, of which no AEs were considered related to study treatment, all AEs of pain events were considered unrelated and consistent with each patient's SCD pain history, and all AEs were treated with patient's standard home pain medications (no SAE/no hospitalization); and (c) one Grade 4 TEAE of elevated creatine kinase, unrelated to study treatment. Non-treatment-related AEs were consistent with events experienced in this patient population. No treatment-related serious AEs were reported.

[3] = test system: H295R adreno-cortical carcinoma cell line; assay: Cell viability (MTT Kit); assay type: cell-based; conditions: at 200 μM
Method: To assess potential effects on steroidogenesis, Compound 1 was screened for steroid modulation in vitro using the H295R adreno-cortical carcinoma cell line (at 200 to 0.0002 μM) and in an assay to monitor cell viability (MTT Kit). Compound 1 indicated steroid modulation potential (% over vehicle) only at 200 μM, the top concentration tested, with 100% cellular viability at concentrations≤20 μM (90% viability at 200 μM).

CYP1A2 = biological target: T2, CYP1A2 (Homo sapiens, UniProt P05177); assay: Single substrate DDI assay, reversible CYP inhibition in human liver microsomes; assay type: in vitro ADME
T2 construct: from tissue; host or cells: human liver microsomes
T2 sequence (P05177 1-516): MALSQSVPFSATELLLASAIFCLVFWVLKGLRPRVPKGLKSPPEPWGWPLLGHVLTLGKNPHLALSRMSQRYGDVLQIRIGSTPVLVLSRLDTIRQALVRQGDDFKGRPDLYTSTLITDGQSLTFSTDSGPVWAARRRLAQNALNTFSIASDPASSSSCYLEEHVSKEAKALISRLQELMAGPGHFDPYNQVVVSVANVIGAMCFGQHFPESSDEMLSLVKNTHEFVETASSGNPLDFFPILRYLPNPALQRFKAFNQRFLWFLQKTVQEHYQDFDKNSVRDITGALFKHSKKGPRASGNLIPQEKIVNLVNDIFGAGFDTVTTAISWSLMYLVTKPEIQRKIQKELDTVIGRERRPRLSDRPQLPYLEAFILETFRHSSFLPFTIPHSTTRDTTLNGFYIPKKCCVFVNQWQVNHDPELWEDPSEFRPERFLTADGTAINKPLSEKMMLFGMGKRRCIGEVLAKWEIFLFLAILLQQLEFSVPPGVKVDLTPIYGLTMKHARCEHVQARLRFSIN

CYP2B6 = assay: CYP mRNA induction in cultured human hepatocytes; assay type: in vitro ADME; conditions: donors AIH, EUJ, HC5-40 individually
[4] = SCD MAD1, 300 mg × 14 days, n = 7

T1 sequence (P30613 whole entry): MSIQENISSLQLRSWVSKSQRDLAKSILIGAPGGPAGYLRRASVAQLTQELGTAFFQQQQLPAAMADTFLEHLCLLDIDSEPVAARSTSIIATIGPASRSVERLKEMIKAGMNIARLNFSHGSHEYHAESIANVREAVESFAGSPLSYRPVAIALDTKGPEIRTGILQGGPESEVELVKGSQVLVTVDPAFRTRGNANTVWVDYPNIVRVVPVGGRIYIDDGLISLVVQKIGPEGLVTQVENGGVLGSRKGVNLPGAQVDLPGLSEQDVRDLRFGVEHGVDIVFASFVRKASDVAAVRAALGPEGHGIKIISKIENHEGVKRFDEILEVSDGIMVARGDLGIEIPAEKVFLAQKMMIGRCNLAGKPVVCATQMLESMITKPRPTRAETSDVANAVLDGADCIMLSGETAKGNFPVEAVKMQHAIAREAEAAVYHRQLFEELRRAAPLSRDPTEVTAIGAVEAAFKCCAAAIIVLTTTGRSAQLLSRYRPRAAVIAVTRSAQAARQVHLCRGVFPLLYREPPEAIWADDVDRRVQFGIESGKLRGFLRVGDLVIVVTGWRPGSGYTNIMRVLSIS

O=C([C@H](CO)c1ccccc1)N1CC2=C(C1)CN(S(=O)(=O)c1cnc3c(c1)OCCO3)C2 (single isomer, unassigned) [Compound 1]
EC50 ([1]; Cell Assay of Example 4): < 0.5 µM | Max − Min (%) ([1]; human RBCs, 3 hr, individual replicates 1-4): <150% and <100% and <50% | Mean maximum activation increase (Max − Min) ([1]; human RBCs, 3 hr, mean of replicates): <100% | Any serious adverse event (SAE), n (%) [2, 4]: 0 n (%) | TEAE related to study drug, n (%) [2, 4]: 2 (29%) n (%) | serious adverse events or TEAEs leading to withdrawal ([2]; SCD single dose cohort): No serious adverse events (SAEs) or TEAEs leading to pt withdrawal | Any TEAE, n (%) ([2]; SCD, single dose 700 mg, N = 5): 2 (40) n (%) | TEAE related to study drug, n (%) ([2]; SCD, single dose 700 mg, N = 5): 1 (20) n (%) | cellular viability [3]: 90% | IC50 (CYP1A2): > 30 µM | mRNA Fold Induction CYP2B6 (CYP2B6; 0.033 μM): 1.17 fold | mRNA Fold Induction CYP2B6 (CYP2B6; 0.1 μM): 1.23 fold and 1.06 fold | mRNA Fold Induction CYP2B6 (CYP2B6; 0.33 μM): 1.10 fold and 0.964 fold | mRNA Fold Induction CYP2B6 (CYP2B6; 1 μM): 1.29 fold | mRNA Fold Induction CYP2B6 (CYP2B6; 3.3 μM): 1.24 fold | mRNA Fold Induction CYP2B6 (CYP2B6; 10 μM): 1.43 fold and 1.21 fold | fold induction at 1 µM (CYP2B6; human, 1 μM): 1.07 | fold induction at 3.3 µM (CYP2B6; human, 3.3 μM): 1.25 | fold induction at 0.033 µM (CYP2B6; human, primary cultured human hepatocytes, 0.033 μM): 0.982 | fold induction at 0.1 µM (CYP2B6; human, primary cultured human hepatocytes, 0.1 μM): 1.01 | fold induction at 0.33 µM (CYP2B6; human, primary cultured human hepatocytes, 0.33 μM): 1 | fold induction at 1 µM (CYP2B6; human, primary cultured human hepatocytes, 1 μM): 1 | fold induction at 3.3 µM (CYP2B6; human, primary cultured human hepatocytes, 3.3 μM): 1.26 | fold induction at 10 µM (CYP2B6; human, primary cultured human hepatocytes, 10 μM): 1.7
